Among the data in the supplement of paper PMC10307832 are relative viability values, retold here.

Assay in all cases: relative viability (nuclei count vs DMSO), 5 days (fraction); higher = more cells survive
Compound in the experiment “Selisistat + Olaparib”: C1CC(C2=C(C1)C3=C(N2)C=CC(=C3)Cl)C(=O)N [Selisistat] + O=C(c1cc(Cc2n[nH]c(=O)c3ccccc23)ccc1F)N1CCN(C(=O)C2CC2)CC1 [Olaparib] (partner 8 µM)
An outline of the steps:
(§1)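 Lung cancer cell lines were pin-tool dosed in 1536-well plates on the day after seeding, with either a lone drug or a fixed anchor-drug dose plus five library-drug doses (not always all listed) in √10 steps. Nuclei were counted on 4× images after 5 days. Relative viability is the ratio of treated-well to vehicle-well nuclei counts, with each value a median of duplicate plates.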

Compound in the experiment “Serdemetan + Trametinib”: c1ccc2c(CCNc3ccc(Nc4ccncc4)cc3)c[nH]c2c1 [Serdemetan] + CC(=O)Nc1cccc(-n2c(=O)n(C3CC3)c(=O)c3c(Nc4ccc(I)cc4F)n(C)c(=O)c(C)c32)c1 [Trametinib] (partner 0.02 µM)
In a few lines:
as §1

Compound in the experiment “Serdemetan + OSI-027”: c1ccc2c(CCNc3ccc(Nc4ccncc4)cc3)c[nH]c2c1 [Serdemetan] + COc1cccc2cc(-c3nc([C@H]4CC[C@H](C(=O)O)CC4)n4ncnc(N)c34)[nH]c12 [OSI-027] (partner 0.5 µM)
An outline of the steps: as §1

Compound in the experiment “Serdemetan + Crizotinib”: c1ccc2c(CCNc3ccc(Nc4ccncc4)cc3)c[nH]c2c1 [Serdemetan] + C[C@@H](Oc1cc(-c2cnn(C3CCNCC3)c2)cnc1N)c1c(Cl)ccc(F)c1Cl [Crizotinib] (partner 1 µM)
In a few lines:
as §1

On to NCI-H520, for which the relative viability was determined as 0.413 with Selisistat + Olaparib (first compound 0.4 µM); 0.317 with Selisistat + Olaparib (first compound 1.265 µM); 0.364 with Selisistat + Olaparib (first compound 4 µM); 0.344 with Selisistat + Olaparib (first compound 12.65 µM); 0.319 with Selisistat + Olaparib (first compound 40 µM); 0.632 in the experiment with Serdemetan + Trametinib (first compound 0.04 µM). Further, the relative viability with Serdemetan + Trametinib (first compound 0.1265 µM) was 0.65; in the experiment with Serdemetan + Trametinib (first compound 0.4 µM) it was 0.623; in the experiment with Serdemetan + Trametinib (first compound 1.265 µM), 0.57; with Serdemetan + Trametinib (first compound 4 µM), 0.428; with Serdemetan + OSI-027 (first compound 0.04 µM) it was 0.283; with Serdemetan + OSI-027 (first compound 0.1265 µM), 0.273. Moreover, the relative viability with Serdemetan + OSI-027 (first compound 0.4 µM) came out at 0.297; with Serdemetan + OSI-027 (first compound 4 µM) it was 0.293; in the experiment with Serdemetan + Crizotinib (first compound 0.04 µM), 0.692; with Serdemetan + Crizotinib (first compound 0.1265 µM), 0.778; with Serdemetan + Crizotinib (first compound 0.4 µM) it was 0.686; with Serdemetan + Crizotinib (first compound 1.265 µM), 0.687. In the experiment with Serdemetan + Crizotinib (first compound 4 µM), the relative viability was 0.641.

For RERF-LC-KJ, the relative viability was found to be 0.962 with Selisistat + Olaparib (first compound 0.4 µM); 0.916 with Selisistat + Olaparib (first compound 1.265 µM); 0.844 in the experiment with Selisistat + Olaparib (first compound 4 µM); 0.828 with Selisistat + Olaparib (first compound 12.65 µM); 0.839 in the experiment with Selisistat + Olaparib (first compound 40 µM); 0.896 with Serdemetan + Trametinib (first compound 0.04 µM). Besides, the relative viability with Serdemetan + Trametinib (first compound 0.1265 µM) was 0.874; with Serdemetan + Trametinib (first compound 0.4 µM), 0.898; with Serdemetan + Trametinib (first compound 1.265 µM), 0.793; with Serdemetan + Trametinib (first compound 4 µM), 0.778; with Serdemetan + OSI-027 (first compound 0.04 µM), 0.589; in the experiment with Serdemetan + OSI-027 (first compound 0.1265 µM) it was 0.711. In addition, the relative viability was 0.442 with Serdemetan + OSI-027 (first compound 0.4 µM); 0.498 with Serdemetan + OSI-027 (first compound 1.265 µM); 0.401 with Serdemetan + OSI-027 (first compound 4 µM); 0.763 in the experiment with Serdemetan + Crizotinib (first compound 0.04 µM); 0.818 with Serdemetan + Crizotinib (first compound 0.1265 µM); 0.718 in the experiment with Serdemetan + Crizotinib (first compound 0.4 µM). Moreover, the relative viability with Serdemetan + Crizotinib (first compound 1.265 µM) is 0.705; with Serdemetan + Crizotinib (first compound 4 µM), 0.753.

For the cell line A-427, the relative viability in the experiment with Selisistat + Olaparib (first compound 0.4 µM) is 0.853; with Selisistat + Olaparib (first compound 1.265 µM) it was 0.779; with Selisistat + Olaparib (first compound 12.65 µM), 0.829; with Selisistat + Olaparib (first compound 40 µM), 0.692; in the experiment with Serdemetan + Trametinib (first compound 0.04 µM) it was 0.699; with Serdemetan + Trametinib (first compound 0.1265 µM) it was 0.732. The relative viability in the experiment with Serdemetan + Trametinib (first compound 0.4 µM) was found to be 0.877; in the experiment with Serdemetan + Trametinib (first compound 1.265 µM), 0.698; in the experiment with Serdemetan + Trametinib (first compound 4 µM), 0.506; with Serdemetan + OSI-027 (first compound 0.04 µM), 0.526; in the experiment with Serdemetan + OSI-027 (first compound 0.1265 µM), 0.509; in the experiment with Serdemetan + OSI-027 (first compound 0.4 µM), 0.539. Besides, the relative viability in the experiment with Serdemetan + OSI-027 (first compound 1.265 µM) was determined as 0.455; with Serdemetan + OSI-027 (first compound 4 µM), 0.36; with Serdemetan + Crizotinib (first compound 0.04 µM), 0.919; in the experiment with Serdemetan + Crizotinib (first compound 0.1265 µM), 0.789; with Serdemetan + Crizotinib (first compound 0.4 µM), 0.662; in the experiment with Serdemetan + Crizotinib (first compound 1.265 µM), 0.287. Moreover, the relative viability with Serdemetan + Crizotinib (first compound 4 µM) came out at 0.404.

On to NCI-H441, for which the relative viability in the experiment with Selisistat + Olaparib (first compound 0.4 µM) was determined as 0.49; with Selisistat + Olaparib (first compound 1.265 µM), 0.51; in the experiment with Selisistat + Olaparib (first compound 4 µM), 0.582; with Selisistat + Olaparib (first compound 12.65 µM), 0.504; with Selisistat + Olaparib (first compound 40 µM), 0.534; in the experiment with Serdemetan + Trametinib (first compound 0.04 µM) it was 0.462. For the same cell line, the relative viability with Serdemetan + Trametinib (first compound 0.1265 µM) was 0.508; with Serdemetan + Trametinib (first compound 0.4 µM), 0.436; with Serdemetan + Trametinib (first compound 1.265 µM) it was 0.435; in the experiment with Serdemetan + Trametinib (first compound 4 µM) it was 0.414; with Serdemetan + OSI-027 (first compound 0.04 µM), 0.581; with Serdemetan + OSI-027 (first compound 0.1265 µM), 0.802. Further, the relative viability in the experiment with Serdemetan + OSI-027 (first compound 0.4 µM) is 0.622; in the experiment with Serdemetan + OSI-027 (first compound 1.265 µM), 0.347; in the experiment with Serdemetan + OSI-027 (first compound 4 µM), 0.441; with Serdemetan + Crizotinib (first compound 0.04 µM) it was 0.721; with Serdemetan + Crizotinib (first compound 0.1265 µM), 0.713; with Serdemetan + Crizotinib (first compound 0.4 µM), 0.649. Moreover, the relative viability with Serdemetan + Crizotinib (first compound 1.265 µM) is 0.487; in the experiment with Serdemetan + Crizotinib (first compound 4 µM), 0.596.

For the cell line NCI-H1703, the relative viability in the experiment with Selisistat + Olaparib (first compound 0.4 µM) is 0.416; with Selisistat + Olaparib (first compound 1.265 µM), 0.425; with Selisistat + Olaparib (first compound 4 µM), 0.362; in the experiment with Selisistat + Olaparib (first compound 12.65 µM), 0.42; with Selisistat + Olaparib (first compound 40 µM), 0.433; with Serdemetan + Crizotinib (first compound 0.04 µM) it was 0.665. For the same cell line, the relative viability with Serdemetan + Crizotinib (first compound 0.1265 µM) came out at 0.872; with Serdemetan + Crizotinib (first compound 0.4 µM), 0.815; with Serdemetan + Crizotinib (first compound 1.265 µM), 0.73; with Serdemetan + Crizotinib (first compound 4 µM), 0.217.

Regarding NCI-H1792, the relative viability with Selisistat + Olaparib (first compound 0.4 µM) was 0.47; in the experiment with Selisistat + Olaparib (first compound 1.265 µM), 0.403; with Selisistat + Olaparib (first compound 12.65 µM) it was 0.479; in the experiment with Selisistat + Olaparib (first compound 40 µM), 0.442; with Serdemetan + Trametinib (first compound 0.04 µM) it was 0.401; in the experiment with Serdemetan + Trametinib (first compound 0.1265 µM), 0.458. In addition, the relative viability in the experiment with Serdemetan + Trametinib (first compound 0.4 µM) was found to be 0.304; in the experiment with Serdemetan + Trametinib (first compound 1.265 µM) it was 0.248; with Serdemetan + Trametinib (first compound 4 µM), 0.142; in the experiment with Serdemetan + OSI-027 (first compound 0.04 µM), 0.752; with Serdemetan + OSI-027 (first compound 0.1265 µM), 0.718; in the experiment with Serdemetan + OSI-027 (first compound 0.4 µM), 0.677. The relative viability in the experiment with Serdemetan + OSI-027 (first compound 1.265 µM) came out at 0.42; in the experiment with Serdemetan + OSI-027 (first compound 4 µM), 0.426; with Serdemetan + Crizotinib (first compound 0.04 µM), 0.947; with Serdemetan + Crizotinib (first compound 0.1265 µM), 0.926; in the experiment with Serdemetan + Crizotinib (first compound 0.4 µM), 0.867; with Serdemetan + Crizotinib (first compound 1.265 µM), 0.939. Further, the relative viability with Serdemetan + Crizotinib (first compound 4 µM) is 0.603.

For the cell line Calu-6, the relative viability with Selisistat + Olaparib (first compound 0.4 µM) came to 0.561; with Selisistat + Olaparib (first compound 1.265 µM), 0.572; with Selisistat + Olaparib (first compound 4 µM), 0.634; with Selisistat + Olaparib (first compound 12.65 µM), 0.552; with Selisistat + Olaparib (first compound 40 µM), 0.617; with Serdemetan + Crizotinib (first compound 0.04 µM), 0.832. For the same cell line, the relative viability in the experiment with Serdemetan + Crizotinib (first compound 0.1265 µM) was found to be 0.718; in the experiment with Serdemetan + Crizotinib (first compound 0.4 µM), 0.712; in the experiment with Serdemetan + Crizotinib (first compound 1.265 µM), 0.566; with Serdemetan + Crizotinib (first compound 4 µM) it was 0.527.

Regarding SK-LU-1, the relative viability with Selisistat + Olaparib (first compound 0.4 µM) was determined as 0.567; with Selisistat + Olaparib (first compound 1.265 µM) it was 0.408; in the experiment with Selisistat + Olaparib (first compound 4 µM) it was 0.404; in the experiment with Selisistat + Olaparib (first compound 12.65 µM) it was 0.495; with Selisistat + Olaparib (first compound 40 µM), 0.529; in the experiment with Serdemetan + Trametinib (first compound 0.04 µM), 0.485. In addition, the relative viability came to 0.464 with Serdemetan + Trametinib (first compound 0.1265 µM); 0.444 with Serdemetan + Trametinib (first compound 0.4 µM); 0.332 with Serdemetan + Trametinib (first compound 1.265 µM); 0.44 in the experiment with Serdemetan + Trametinib (first compound 4 µM); 0.424 with Serdemetan + OSI-027 (first compound 0.04 µM); 0.405 with Serdemetan + OSI-027 (first compound 0.1265 µM). Also, the relative viability in the experiment with Serdemetan + OSI-027 (first compound 0.4 µM) turned out to be 0.405; with Serdemetan + OSI-027 (first compound 4 µM), 0.246; in the experiment with Serdemetan + Crizotinib (first compound 0.04 µM), 0.813; in the experiment with Serdemetan + Crizotinib (first compound 0.1265 µM), 0.899; with Serdemetan + Crizotinib (first compound 0.4 µM) it was 0.82; with Serdemetan + Crizotinib (first compound 1.265 µM), 0.679. Further, the relative viability with Serdemetan + Crizotinib (first compound 4 µM) came to 0.712.
